Read-outs that look alike come from different tables or passages of the source.
What was measured:
[1] = Storage stability (appearance of solution) in different solvents at −5° C., +20° C. and +50° C., 14 days' storage; format: physicochemical
[2] = cited from earlier work
[3] = Solubilities of biocidal active substances in different solvents at 25° C.; format: physicochemical
[4] = in Butyl polyglycol, 14 days' storage
[5] = in Diethylene glycol, 14 days' storage
[6] = in Dimethyl sulfoxide, 14 days' storage
[7] = in N-Methylpyrrolidone, 14 days' storage
[8] = in Polyethylene glycol 300, 14 days' storage
[9] = in Polyethylene glycol 300, 25° C.
[10] = in Polyethylene glycol 400/glycerol 3:1, 25° C.
[11] = in TEGDME (tetraethylene glycol dimethyl ether), 25° C.
[12] = in dimethyl sulfoxide or N-methylpyrrolidone

Storage stability at +20° C. [1, 4]	Storage stability at +50° C. [1, 4]	Storage stability at −5° C. [1, 4]	Storage stability at +20° C. [1, 5]	Storage stability at +50° C. [1, 5]	Storage stability at −5° C. [1, 5]	Storage stability at +20° C. [1, 6]	Storage stability at +50° C. [1, 6]	Storage stability at −5° C. [1, 6]	Storage stability at +20° C. [1, 7]	Storage stability at +50° C. [1, 7]	Storage stability at −5° C. [1, 7]	Storage stability at +20° C. [1, 8]	Storage stability at +50° C. [1, 8]	Storage stability at −5° C. [1, 8]	SMILES	Solubility [25° C.] ([3]; in 2-Ethylhexanol, 25° C.)	Solubility [25° C.] ([3]; in Butyl diglycol, 25° C.) [%]	Solubility [25° C.] ([3]; in Butyl polyglycol, 25° C.) [%]	Solubility [25° C.] ([3]; in Diethylene glycol, 25° C.) [%]	Solubility [25° C.] ([3]; in Dimethyl sulfoxide, 25° C.) [%]	other results
clear solution	clear solution	clear solution	clear solution	clear solution	clear solution	clear solution	clear solution	clear solution	clear solution	clear solution	clear solution	clear solution	clear solution	clear solution	O=c1[nH]sc2ccccc12 [1,2-Benzisothiazolin-3-one, 1,2-benzisothiazolin-3-one]	insoluble	7	10	7	30	Active substance content at which solutions are stable ([2]; propylene glycol/water or diethylene glycol/water mixture, U.S. Pat. No. 4,188,376, higher concentrated solutions liable to precipitation): below 5 % by weight; Solubility in water ([2]; water): sparingly soluble; Solubility [25° C.] ([3]; in Dipropylene glycol, 25° C.): 5%; Solubility [25° C.] ([3]; in Glycerol, 25° C.): insoluble; Solubility [25° C.] ([3]; in N-Methylpyrrolidone, 25° C.): 7%; Solubility [25° C.] [3, 9]: 8%; Solubility [25° C.] [3, 10]: 7%; Solubility [25° C.] ([3]; in Polyglycol D 21/150, 25° C.): 4%; Solubility [25° C.] ([3]; in Polyglycol M 350, 25° C.): 9%; Solubility [25° C.] [3, 11]: 8%
clear, yellowish	clear, yellowish	clear, colorless	clear, colorless	clear, colorless	clear, colorless	brown solution	black solution	clear, yellowish	brown solution	black solution	clear, yellowish	clear, yellowish	clear, yellowish	clear, colorless	N#CCCC(Br)(C#N)CBr (stereo not shown) [1,2-Dibromo-2,4-dicyanobutane, 1,2-dibromo-2,4-dicyanobutane]	insoluble	30	40	20	45	Chemical stability [2, 12]: chemically unstable; Solubility [2, 12]: readily soluble; Solubility ([2]; in solvents such as glycerol or 2-ethylhexanol): sparingly soluble; Solubility [25° C.] ([3]; in Dipropylene glycol, 25° C.): 10%; Solubility [25° C.] ([3]; in Glycerol, 25° C.): insoluble; Solubility [25° C.] ([3]; in N-Methylpyrrolidone, 25° C.): 40%; Solubility [25° C.] [3, 9]: 35%; Solubility [25° C.] [3, 10]: 20%; Solubility [25° C.] ([3]; in Polyglycol D 21/150, 25° C.): 15%; Solubility [25° C.] ([3]; in Polyglycol M 350, 25° C.): 45%; Solubility [25° C.] [3, 11]: 45%
